Broadly, the IC50 is the concentration needed to halve the response being measured.

The source of these data is US11192893B2, “Pyrazoloquinazolinone antitumor agents” (The Rockefeller University, priority 2017, dated 2021).

Like-named read-outs stand apart in the source and are kept apart here.

Test [1] has as its target human cytoplasmic dynein 2 (Homo sapiens (Human), UniProt Q8NCM8). The test can be described thus: microtubule gliding assay with GFP-dynein 2. The settings on record: for Gliding velocity: dynein 2-driven microtubule gliding, test compounds at 20 pM (so in the source), 0.05 mg/mL casein, 2% DMSO, solvent control 126 ± 17; for Gliding velocity / IC50: 1 mM MgATP; for IC50: Table 1, dose-dependent analysis of dynein 2-driven microtubule gliding. The class given is biochemical. The procedure: Compounds were tested employing a microtubule gliding assay, a standard biochemical assay for motor proteins. […] We purified an N-terminally GFP-tagged motor-domain construct of dynein 2 using an insect cell expression system [Schmidt et al., Nature. 2015; 518(7539):435-8]. The GFP tag in this construct allowed immobilization on passivated glass coverslips used in microtubule gliding assays. GFP-dynein 2, in the presence of ATP (1 mM), moved microtubules with a velocity of 128±14 nm/s. The mean velocity of dynein 2-driven microtubule gliding in the presence of control solvent (2% DMSO) and test compounds at 20 pM were compared. All motility assays were run at 1 mM MgATP, 0.05 mg/mL casein, and 2% DMSO. Representative examples of compounds of the invention provided the results shown as “Gliding velocity in nm/s” in Table 1. For some compounds, dose-dependent analyses were performed, and the results are shown as “IC50 in μM” in Table 1.
Microtubule surface gliding assay. Cytoplasmic dynein was purified from bovine brains as described by Bingham et al. [Methods Enzymol. 298, 171 (1998)]. K560, a 560-amino acid N-terminal fragment of human conventional kinesin (kinesin-1) with a C-terminal His-tag, was expressed in bacteria and purifed as described by Woehlke et al., [Cell 90, 207 (1997)]. Motility assays were performed on a Zeiss Axiovert 200M wide-field microscope equipped with a Zeiss 100×/1.45 NA α-Plan-Fluar objective. Data were captured with an EM-CCD camera (iXon DU-897, Andor Technology) with a 0.3-second exposure time and frame rate of 0.5 second^−1. Microtubule gliding assays were performed as described by Kapoor and Mitchison [Proc. Natl. Acad. Sci. U.S.A 96, 9106 (1999)] with some modifications. An approximately 6-μL flow chamber was filled with motor protein (100 μg/mL dynein or 50 μg/mL K560) in motor dilution buffer (80 mM Pipes, 1 mM EGTA, 2 mM MgCl2, 2 mM DTT, 50 μM ATP, pH 6.8 with KOH). After a 2-minute incubation, excess protein was washed out with 20 μL of PEM80 buffer (80 mM Pipes, 1 mM EGTA, 2 mM MgCl2, pH 6.8 with KOH) and the surface was blocked against non-specific microtubule binding by filling the chamber with blocking protein (0.5 mg/mL α-casein for dynein experiments and 1 mg/mL BSA for K560 experiments) in motor dilution buffer. After 2 minutes the chamber was perfused with 18 μL of reaction mix (PEM80, 40 mM KC 1, blocking protein [1 mg/mL α-casein for dynein experiments; 1 mg/mL BSA for K560 experiments], 2 mM MgATP, 20 μM taxol, 0.1 μM rhodamine-labeled microtubules, oxygen depletion system [4 mM DTT, 2 mM glucose, 40 μg/mL glucose oxidase, 35 μg/mL catalase], 2.5% DMSO, and test compounds as appropriate). The flow chamber was then sealed with valap. After allowing the microtubules to bind to the surface for 5 minutes, the gliding microtubules were visualized by time-lapse fluorescence microscopy. Velocities were measured by kymography using Metamorph software (Molecular Devices), and the velocity for each microtubule was determined from the total distance during the time observed.
For washout experiments, the chamber was left unsealed after the initial reaction mix containing inhibitor was added. Microtubules were allowed to bind to the surface for 5 minutes, and then a time-lapse movie was acquired. The inhibitor was then washed out of the chamber by flowing in 20 μL of fresh reaction mix (PEM80, 40 mM KCl, 1 mg/mL α-casein, 2 mM MgATP, 20 μM taxol, oxygen depletion system, and 2.5% DMSO) without additional microtubules or inhibitor. The chamber was sealed, and additional time-lapse movies were acquired.

Test [2] concerns Hedgehog pathway activity. The test can be described thus: Shh-Light luciferase reporter assay of Hedgehog pathway activity (Shh-Light2 cells, SAG-stimulated). Format: cell-based. The following applies: for activity at 20 µM: 20 μM compound, read-out: SHH-light % residual @ 20 μM; for activity at 2 µM: 2 μM compound, read-out: SHH-light % residual @ 2 μM. Put shortly:
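NIH-3T3 cells stably carrying a Gli-site luciferase reporter (Shh-Light2) were switched to DMEM + 0.5% BCS with SAG (500 nM) and compound (three-fold dilutions from 20 μM; 0.2% DMSO control). After 28-32 hr of treatment, cells were lysed and firefly luciferase luminescence was read.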

Test [3] deals with human dynein 1 (Homo sapiens (Human), UniProt Q14204). The test can be described thus: microtubule gliding assay with GFP-dynein 1. The class given is biochemical. The settings on record: washout. The text has this: To examine the inhibition of dynein 1 by compound 5 in vitro we generated recombinant human protein. We expressed and purified a GFP-tagged human dynein 1 (AA 1320-'16'16) construct similar to the one we used for GFP dynein 2. […] GFP-dynein 1 moves microtubules at 510±60 nm/s, a velocity expected based on studies of other mammalian dynein 1 homologs (n=7).
Microtubule surface gliding assay. Cytoplasmic dynein was purified from bovine brains as described by Bingham et al. [Methods Enzymol. 298, 171 (1998)]. K560, a 560-amino acid N-terminal fragment of human conventional kinesin (kinesin-1) with a C-terminal His-tag, was expressed in bacteria and purifed as described by Woehlke et al., [Cell 90, 207 (1997)]. Motility assays were performed on a Zeiss Axiovert 200M wide-field microscope equipped with a Zeiss 100×/1.45 NA α-Plan-Fluar objective. Data were captured with an EM-CCD camera (iXon DU-897, Andor Technology) with a 0.3-second exposure time and frame rate of 0.5 second^−1. […] After allowing the microtubules to bind to the surface for 5 minutes, the gliding microtubules were visualized by time-lapse fluorescence microscopy. Velocities were measured by kymography using Metamorph software (Molecular Devices), and the velocity for each microtubule was determined from the total distance during the time observed. […]

For test [4], the system named is dynein 1 construct with a mutation in the AAA3 domain (Walker A residue). The experiment in a line: ATPase activity of dynein 1 construct with AAA3 mutation. The class given is biochemical. The text has this:
ATPase activity at AAA1 is linked to individual steps of the motor, while the AAA3 site plays a regulatory role. Two lines of evidence indicate that compounds of the invention target the AAA1 site specifically. First, compound 5 inhibits the activity of a dynein 1 construct with a mutation in the AAA3 domain (Walker A residue). In this construct, the ATPase activity is expected to be mainly due to the AAA1 site. Second, the potency of inhibition of the AAA3 mutant is similar to that of the microtubule-stimulated ATPase rate. Sequence comparisons indicate that the AAA1 sites in dynein 1 and 2 are highly conserved, while the other AAA sites are less conserved. In fact, the residues within 4 Å of the bound nucleotide in AAA1 are identical between dynein 1 and 2.

The test system of test [5] is medulloblastoma. The settings on record: human patient; cited from earlier work.
The test system of test [6] is basal cell carcinoma. The following applies: 33 human patients; cited from earlier work.
Where [7] appears, read: SAG 500 nM, read-out: IC50, luciferase expression driven by Hedgehog pathway activity.
Setting [8] is: Table 2, SAG 500 nM, 28-32 hr treatment, read-out: Shh-light IC50.

Chain of human cytoplasmic dynein 2 (Q8NCM8 1091-4307 limits assumed): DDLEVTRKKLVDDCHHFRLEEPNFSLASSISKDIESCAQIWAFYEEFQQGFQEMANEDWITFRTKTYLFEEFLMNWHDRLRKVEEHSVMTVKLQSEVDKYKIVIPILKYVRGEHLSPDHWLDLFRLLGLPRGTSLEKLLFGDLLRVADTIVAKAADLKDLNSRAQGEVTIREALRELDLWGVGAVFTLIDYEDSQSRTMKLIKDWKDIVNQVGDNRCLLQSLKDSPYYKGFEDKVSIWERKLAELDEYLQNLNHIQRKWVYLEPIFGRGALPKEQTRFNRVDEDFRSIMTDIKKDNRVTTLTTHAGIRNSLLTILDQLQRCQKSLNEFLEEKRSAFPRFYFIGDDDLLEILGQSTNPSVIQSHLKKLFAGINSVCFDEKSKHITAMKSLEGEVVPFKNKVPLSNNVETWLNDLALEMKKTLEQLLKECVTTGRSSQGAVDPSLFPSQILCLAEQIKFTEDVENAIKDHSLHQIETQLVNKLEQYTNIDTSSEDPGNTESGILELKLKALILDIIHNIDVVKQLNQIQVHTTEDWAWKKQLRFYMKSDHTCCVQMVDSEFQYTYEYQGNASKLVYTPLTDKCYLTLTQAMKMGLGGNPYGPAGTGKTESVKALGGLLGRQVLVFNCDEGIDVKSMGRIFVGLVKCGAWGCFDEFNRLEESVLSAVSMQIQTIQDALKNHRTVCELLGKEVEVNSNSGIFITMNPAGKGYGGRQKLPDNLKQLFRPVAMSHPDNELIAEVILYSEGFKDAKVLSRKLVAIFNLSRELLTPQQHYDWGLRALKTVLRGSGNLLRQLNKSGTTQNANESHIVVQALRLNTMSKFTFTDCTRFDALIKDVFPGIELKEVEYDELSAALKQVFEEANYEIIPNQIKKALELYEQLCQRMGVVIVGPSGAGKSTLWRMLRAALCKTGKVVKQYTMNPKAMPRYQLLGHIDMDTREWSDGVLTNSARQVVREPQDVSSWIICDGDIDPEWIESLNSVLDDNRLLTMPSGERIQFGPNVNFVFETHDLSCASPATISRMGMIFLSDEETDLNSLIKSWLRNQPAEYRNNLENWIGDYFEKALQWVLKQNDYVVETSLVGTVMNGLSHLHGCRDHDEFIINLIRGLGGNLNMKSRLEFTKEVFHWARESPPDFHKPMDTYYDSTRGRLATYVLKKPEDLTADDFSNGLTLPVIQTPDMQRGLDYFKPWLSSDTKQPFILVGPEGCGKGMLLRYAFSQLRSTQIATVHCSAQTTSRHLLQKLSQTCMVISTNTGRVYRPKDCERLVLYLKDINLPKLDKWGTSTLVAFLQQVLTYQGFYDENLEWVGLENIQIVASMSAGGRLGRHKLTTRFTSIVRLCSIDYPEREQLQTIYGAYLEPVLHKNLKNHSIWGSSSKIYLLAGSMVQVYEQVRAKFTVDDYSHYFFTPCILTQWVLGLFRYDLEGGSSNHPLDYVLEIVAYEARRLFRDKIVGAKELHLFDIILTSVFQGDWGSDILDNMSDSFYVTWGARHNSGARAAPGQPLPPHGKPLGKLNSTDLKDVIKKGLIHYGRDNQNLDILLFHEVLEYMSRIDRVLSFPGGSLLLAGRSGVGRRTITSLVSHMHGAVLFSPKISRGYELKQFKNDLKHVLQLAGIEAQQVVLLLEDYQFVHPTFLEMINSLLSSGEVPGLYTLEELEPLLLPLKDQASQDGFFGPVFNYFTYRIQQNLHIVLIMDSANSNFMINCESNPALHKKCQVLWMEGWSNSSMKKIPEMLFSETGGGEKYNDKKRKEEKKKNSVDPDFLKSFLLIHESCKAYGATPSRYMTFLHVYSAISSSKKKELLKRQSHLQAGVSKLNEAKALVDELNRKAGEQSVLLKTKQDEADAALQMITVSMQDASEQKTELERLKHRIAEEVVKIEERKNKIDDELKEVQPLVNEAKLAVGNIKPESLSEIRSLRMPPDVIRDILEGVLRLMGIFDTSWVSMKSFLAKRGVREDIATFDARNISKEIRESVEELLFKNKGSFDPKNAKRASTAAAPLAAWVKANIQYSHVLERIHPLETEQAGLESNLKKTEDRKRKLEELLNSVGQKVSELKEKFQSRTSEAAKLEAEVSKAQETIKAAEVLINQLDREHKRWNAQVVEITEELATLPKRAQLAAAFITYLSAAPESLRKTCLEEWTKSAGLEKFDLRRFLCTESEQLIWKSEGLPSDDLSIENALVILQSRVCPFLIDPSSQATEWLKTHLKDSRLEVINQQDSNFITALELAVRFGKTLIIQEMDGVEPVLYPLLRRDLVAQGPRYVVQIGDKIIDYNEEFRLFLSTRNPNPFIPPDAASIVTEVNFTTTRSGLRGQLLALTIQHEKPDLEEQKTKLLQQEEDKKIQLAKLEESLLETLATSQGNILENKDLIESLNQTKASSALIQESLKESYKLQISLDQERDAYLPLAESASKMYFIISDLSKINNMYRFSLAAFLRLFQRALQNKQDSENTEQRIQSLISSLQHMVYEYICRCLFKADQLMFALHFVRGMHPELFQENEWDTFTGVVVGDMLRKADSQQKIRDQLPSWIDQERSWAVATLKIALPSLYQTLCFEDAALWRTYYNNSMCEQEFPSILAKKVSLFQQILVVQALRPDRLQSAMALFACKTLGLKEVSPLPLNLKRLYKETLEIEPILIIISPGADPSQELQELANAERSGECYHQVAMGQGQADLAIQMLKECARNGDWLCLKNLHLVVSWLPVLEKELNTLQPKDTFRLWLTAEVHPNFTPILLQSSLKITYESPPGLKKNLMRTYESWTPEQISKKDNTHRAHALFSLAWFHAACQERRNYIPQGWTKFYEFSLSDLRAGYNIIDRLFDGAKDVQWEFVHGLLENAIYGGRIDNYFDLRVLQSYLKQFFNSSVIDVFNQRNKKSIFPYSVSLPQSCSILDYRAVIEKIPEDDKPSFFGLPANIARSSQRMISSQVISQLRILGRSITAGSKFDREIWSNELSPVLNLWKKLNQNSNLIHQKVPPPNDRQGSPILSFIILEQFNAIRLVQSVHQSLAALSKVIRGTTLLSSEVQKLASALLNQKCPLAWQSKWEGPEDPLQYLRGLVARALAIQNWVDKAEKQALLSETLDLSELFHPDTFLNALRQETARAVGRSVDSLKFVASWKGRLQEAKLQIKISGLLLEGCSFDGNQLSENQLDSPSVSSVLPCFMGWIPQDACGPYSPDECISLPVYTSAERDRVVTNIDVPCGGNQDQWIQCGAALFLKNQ

`N#Cc1c(-c2ccc(Cl)cc2Cl)nn2c1[nH]c(=O)c1ccccc12` [Example 2, 2-(2,4-dichlorophenyl)-5-oxo-4H-pyrazolo[1,5-a]quinazoline-3-carbonitrile]: in test [1], the Gliding velocity turned out to be 83 ± 10 nm/s. Also, in test [2] (SAG 500 nM), the activity at 20 µM was determined as 19.1%. The IC50 in test [2] (setting [7]) was determined as 5200 ± 5000 nM.

For `N#Cc1c(C2(c3ccc(Cl)cc3)CC2)nn2c1[nH]c(=O)c1ccccc12` [Example 3, 2-[1-(4-chlorophenyl)cyclopropyl]-5-oxo-4H-pyrazolo[1,5-a]quinazoline-3-carbonitrile], the Gliding velocity in test [1] was found to be 58 ± 14 nm/s.

With `N#Cc1c(C2(c3ccc(Cl)cc3)CC2)nn2c1[nH]c(=O)c1cc(C(F)(F)F)ccc12` [Example 4, 2-(1-(4-chlorophenyl)cyclopropyl)-5-oxo-7-(trifluoromethyl)-4,5-dihydropyrazolo[1,5-a]quinazoline-3-carbonitrile], in test [1], the IC50 came out at 3300 ± 200 nM and the Gliding velocity was determined as 6 ± 2 nm/s. In test [2] (SAG 500 nM), the activity at 2 µM turned out to be 41.8% and the activity at 20 µM was -4.4%.

`N#Cc1c(C2(c3ccc(Cl)cc3)CC2)nn2c1[nH]c(=O)c1cc(I)ccc12` [Example 5, 2-[1-(4-chlorophenyl)cyclopropyl]-7-iodo-5-oxo-4H-pyrazolo[1,5-a]quinazoline-3-carbonitrile]: in test [1], the midpoint of inhibition, the IC50, lay at 2600 ± 1300 nM and the Gliding velocity is 6 ± 2 nm/s. The “reversibility of inhibition of dynein 2-dependent motility” value in test [1] (washout) was “reversed following washout”. Further, in test [2] (SAG 500 nM), the activity at 2 µM was found to be 24.8% and the activity at 20 µM was -5.2%. For the same compound, the 50% inhibitory concentration (IC50) in test [2] (setting [7]) amounted to 900 ± 500 nM. In test [2] (setting [8]), the IC50 worked out at 1450 nM. Also, the “reversibility of inhibition of dynein 1-dependent microtubule gliding” value in test [3] is recorded as “reversed following washout”. Further, the “inhibition of ATPase activity of AAA3 mutant dynein 1” value in test [4] was “inhibits”.

As for `N#Cc1c(C2(c3ccc(Cl)cc3)CC2)nn2c(=O)c3cc(Br)ccc3[nH]c12` [Example 12, 7-Bromo-2-[1-(4-chlorophenyl)cyclopropyl]-9-oxo-4H-pyrazolo[5,1-b]quinazoline-3-carbonitrile], the IC50 in test [1] is 290 nM. In test [2] (SAG 500 nM), the activity at 2 µM is -3.1% and the activity at 20 µM was -1.9%. For the same compound, the IC50 in test [2] (setting [8]) worked out at 290 nM.

The compound `N#Cc1c(C2CCC(c3ccc(Cl)cc3)CC2)nn2c(=O)c3ccccc3[nH]c12` (centres unmarked) [Example 27, 2-[4-(4-Chlorophenyl)cyclohexyl]-9-oxo-4H-pyrazolo[5,1-b]quinazoline-3-carbonitrile] returned an IC50 in test [1] of 620 nM. In test [2] (SAG 500 nM), the activity at 2 µM turned out to be 27.3% and the activity at 20 µM is -1.5%. Besides, the IC50 in test [2] (setting [8]) is 600 nM.

Take `N#Cc1c(CCCOc2ccc(Cl)cc2)nn2c(=O)c3ccccc3[nH]c12` [Example 29, 2-[3-(4-Chlorophenoxy)propyl]-9-oxo-4H-pyrazolo[5,1-b]quinazoline-3-carbonitrile]: the IC50 in test [1] was determined as 730 nM. Moreover, in test [2] (SAG 500 nM), the activity at 2 µM stood at 33.5% and the activity at 20 µM stood at 3.8%. Besides, the IC50 in test [2] (setting [8]) turned out to be 680 nM.

With `N#Cc1c(C2(c3ccc(Cl)cc3)CC2)nn2c(=O)c3ccccc3[nH]c12` [Example 31, 2-[1-(4-Chlorophenyl)cyclopropyl]-9-oxo-4H-pyrazolo[5,1-b]quinazoline-3-carbonitrile], the IC50 in test [1] came to 710 nM. Moreover, in test [2] (SAG 500 nM), the activity at 2 µM amounted to 30.4% and the activity at 20 µM is -1.6%. Also, the IC50 in test [2] (setting [8]) came out at 660 nM.

Consider `CS(=O)(=O)c1ccc(C(=O)Nc2ccc(Cl)c(-c3ccccn3)c2)c(Cl)c1` [GDC-0449], for which the “clinical response, medulloblastoma” value in test [5] is “regression of medulloblastoma”. Further, in test [6], the “clinical response, basal cell carcinoma” value was “clinically significant response”.
